Test [1] deals with Mycobacterium tuberculosis. As to the kind of experiment: Antimycobacterial activity against Mycobacterium tuberculosis H37Rv ATCC 27294 assessed as growth inhibition at 6.25 ug/mL after 4 days by microplate alamar blue assay. Format: functional. The conditions noted are these: H37Rv ATCC 27294, 96 h, read-out: GI. A general note: The colour change of resazurin is a common sign of viable cells or microbes.

Test [2] concerns Mycobacterium tuberculosis. As to the kind of experiment: Antimycobacterial activity against Mycobacterium tuberculosis H37Rv ATCC 27294 assessed as growth inhibition at 12.5 ug/mL after 4 days by microplate alamar blue assay. Format: functional. The conditions noted are these: H37Rv ATCC 27294, 96 h, read-out: GI.

As for `Cc1ccc(NC(S)=Nc2cccc(-c3nnc(S)o3)c2)cc1`, the inhibition of growth at 6.25 µg/mL in test [1] turned out to be 18%.

`NC(S)=Nc1cccc(-c2nnc(S)o2)c1`: the inhibition of growth at 6.25 µg/mL in test [1] is 13%.

With `NN=C(S)Nc1cccc(-c2nnc(S)o2)c1`, the inhibition of growth at 6.25 µg/mL in test [1] came out at 0%.

As to `CSc1nnc(-c2cccc(NC(S)=NN)c2)o1`, the inhibition of growth at 6.25 µg/mL in test [1] was determined as 0%.

In the case of `CSc1nnc(-c2ccc(NC(N)=S)cc2)o1`, the inhibition of growth at 6.25 µg/mL in test [1] turned out to be 78%.

Consider `NC(=S)Nc1ccc(-c2nnc(SCC(=O)c3ccccc3)o2)cc1`, for which the inhibition of growth at 6.25 µg/mL in test [1] is 61%.

In the case of `CSc1nnc(-c2ccc(NC(=S)Nn3cnnc3)cc2)o1`, the inhibition of growth at 6.25 µg/mL in test [1] stood at 58%.

In the case of `CSc1nnc(-c2ccc(NC(=S)N3CCOCC3)cc2)o1`, the inhibition of growth at 6.25 µg/mL in test [1] came to 0%.

As for `CSc1nnc(-c2ccc(NC(=S)Nc3ccc(C)cc3)cc2)o1`, the inhibition of growth at 6.25 µg/mL in test [1] stood at 17%.

For `C=CCSc1nnc(-c2ccc(N=C=S)cc2)o1`, the inhibition of growth at 6.25 µg/mL in test [1] is 56%.

Turning to `CSc1nnc(-c2ccc(NC(=S)NN)cc2)o1`, the inhibition of growth at 6.25 µg/mL in test [1] was determined as 0%.

With `O=C(CSc1nnc(-c2ccc(N=C=S)cc2)o1)c1ccc(Cl)cc1Cl`, the inhibition of growth at 6.25 µg/mL in test [1] was 2%.

For the compound `O=C(CSc1nnc(-c2ccc(N=C=S)cc2)o1)c1ccccc1`, the inhibition of growth at 6.25 µg/mL in test [1] is 22%.

Regarding `O=C(CSc1nnc(-c2ccc(N=C=S)cc2)o1)c1ccc(F)cc1`, in test [1], the inhibition of growth at 6.25 µg/mL amounted to 12%.

`S=C=Nc1ccc(-c2nnc(Sc3ncccn3)o2)cc1`: the inhibition of growth at 6.25 µg/mL in test [1] was found to be 14%.

Consider `S=C=Nc1ccc(-c2nnc(SCc3ccccc3)o2)cc1`, for which the inhibition of growth at 6.25 µg/mL in test [1] was 20%.

On to `S=C=Nc1ccc(-c2nnc(SCc3ccncc3)o2)cc1`, for which, in test [1], the inhibition of growth at 6.25 µg/mL was found to be 27%.

For the compound `CSc1nnc(-c2ccc(N=C=S)cc2)o1`, the inhibition of growth at 6.25 µg/mL in test [1] came out at 37%.

For `C=CCNC(=S)Nc1ccc(-c2nnc(S)o2)cc1`, in test [1], the inhibition of growth at 6.25 µg/mL is 6%.

As to `Cc1ccc(NC(=S)Nc2ccc(-c3nnc(S)o3)cc2)cc1`, the inhibition of growth at 6.25 µg/mL in test [1] came out at 5%.

On to `CN(C)NC(=S)Nc1ccc(-c2nnc(S)o2)cc1`, for which, in test [1], the inhibition of growth at 6.25 µg/mL was found to be 9%.

Consider `OCCNC(=S)Nc1ccc(-c2nnc(S)o2)cc1`, for which the inhibition of growth at 6.25 µg/mL in test [1] is 9%.

Consider `S=C(Nc1ccc(-c2nnc(S)o2)cc1)N1CCCCC1`, for which the inhibition of growth at 6.25 µg/mL in test [1] turned out to be 28%.

For `CCNC(=S)Nc1ccc(-c2nnc(S)o2)cc1`, in test [1], the inhibition of growth at 6.25 µg/mL was determined as 0%.

`NC(=S)Nc1ccc(-c2nnc(S)o2)cc1`: in test [1], the inhibition of growth at 6.25 µg/mL came out at 70%.

For the compound `CNC(=S)Nc1ccc(-c2nnc(S)o2)cc1`, the inhibition of growth at 6.25 µg/mL in test [1] worked out at 0%.

For the compound `S=C=Nc1ccc(-c2nnc(S)o2)cc1`, the inhibition of growth at 6.25 µg/mL in test [1] amounted to 2%.

For the compound `S=C=Nc1cccc(-c2nnc(S)o2)c1`, the inhibition of growth at 6.25 µg/mL in test [1] is 9%.

With `CSc1nnc(-c2ccc(NC(=S)NCCO)cc2)o1`, in test [1], the inhibition of growth at 6.25 µg/mL amounted to 67%.

Consider `OCCNC(=S)Nc1ccc(-c2nnc(SCc3ccncc3)o2)cc1`, for which the inhibition of growth at 6.25 µg/mL in test [1] came to 25%.

`NC(=S)Nc1ccc(-c2nnc(Sc3ncccn3)o2)cc1`: in test [1], the inhibition of growth at 6.25 µg/mL turned out to be 87%.

Turning to `O=C(CSc1nnc(-c2ccc(NC(=S)NCCO)cc2)o1)c1ccc(F)cc1`, the inhibition of growth at 6.25 µg/mL in test [1] amounted to 90%.

For `NC(=S)Nc1ccc(-c2nnc(SCc3ccccc3)o2)cc1`, the inhibition of growth at 12.5 µg/mL in test [2] was determined as 91%.

For `NC(=S)Nc1ccc(-c2nnc(SCC(=O)c3ccc(Cl)cc3Cl)o2)cc1`, the inhibition of growth at 12.5 µg/mL in test [2] is 93%.

Take `O=C(CSc1nnc(-c2ccc(NC(=S)NCCO)cc2)o1)c1ccccc1`: the inhibition of growth at 12.5 µg/mL in test [2] stood at 96%.

As for `C=CCSc1nnc(-c2ccc(NC(=S)NCCO)cc2)o1`, the inhibition of growth at 12.5 µg/mL in test [2] worked out at 96%.

Regarding `OCCNC(=S)Nc1ccc(-c2nnc(SCc3ccccc3)o2)cc1`, in test [2], the inhibition of growth at 12.5 µg/mL turned out to be 97%.

On to `C=CCSc1nnc(-c2ccc(NC(N)=S)cc2)o1`, for which the inhibition of growth at 12.5 µg/mL in test [2] amounted to 98%.

On to `O=C(CSc1nnc(-c2ccc(NC(=S)NCCO)cc2)o1)c1ccc(Cl)cc1Cl`, for which, in test [2], the inhibition of growth at 12.5 µg/mL turned out to be 98%.

In the case of `NC(=S)Nc1ccc(-c2nnc(SCc3ccncc3)o2)cc1`, the inhibition of growth at 12.5 µg/mL in test [2] came to 97%.

As for `OCCNC(=S)Nc1ccc(-c2nnc(Sc3ncccn3)o2)cc1`, in test [1], the inhibition of growth at 6.25 µg/mL was 14%.

Consider `C=CCNC(=S)Nc1cccc(-c2nnc(S)o2)c1`, for which the inhibition of growth at 6.25 µg/mL in test [1] turned out to be 0%.

Turning to `CC(C)=NNC(=S)Nc1cccc(-c2nnc(S)o2)c1`, the inhibition of growth at 6.25 µg/mL in test [1] was 16%.

On to `C/C(=N/NC(=S)Nc1cccc(-c2nnc(S)o2)c1)c1ccccc1`, for which the inhibition of growth at 6.25 µg/mL in test [1] was 20%.

Regarding `S=C(Nc1cccc(-c2nnc(S)o2)c1)Nn1cnnc1`, in test [1], the inhibition of growth at 6.25 µg/mL was found to be 13%.

`S=C(Nc1cccc(-c2nnc(S)o2)c1)N1CCCCC1`: in test [1], the inhibition of growth at 6.25 µg/mL was 13%.

On to `CN(C)NC(=S)Nc1cccc(-c2nnc(S)o2)c1`, for which the inhibition of growth at 6.25 µg/mL in test [1] was 5%.

Consider `S=C=Nc1cccc(-c2cnc(SCCc3ccccc3)o2)c1`, for which the inhibition of growth at 6.25 µg/mL in test [1] came to 0%.

Turning to `S=C=Nc1cccc(-c2nnc(SCc3ccccc3)o2)c1`, the inhibition of growth at 6.25 µg/mL in test [1] turned out to be 0%.

As to `O=C(CSc1nnc(-c2cccc(N=C=S)c2)o1)c1ccc2ccccc2c1`, in test [1], the inhibition of growth at 6.25 µg/mL came to 0%.

Consider `O=C(CSc1nnc(-c2cccc(N=C=S)c2)o1)c1ccc(Br)cc1`, for which the inhibition of growth at 6.25 µg/mL in test [1] turned out to be 0%.

`O=C(CSc1nnc(-c2cccc(N=C=S)c2)o1)c1ccc(Cl)cc1Cl`: the inhibition of growth at 6.25 µg/mL in test [1] was determined as 0%.

In the case of `C=CCSc1nnc(-c2cccc(N=C=S)c2)o1`, the inhibition of growth at 6.25 µg/mL in test [1] amounted to 3%.

With `O=C(CSc1nnc(-c2cccc(N=C=S)c2)o1)c1ccc(F)cc1`, the inhibition of growth at 6.25 µg/mL in test [1] amounted to 5%.

Regarding `O=C(CSc1nnc(-c2cccc(N=C=S)c2)o1)c1ccc(Cl)cc1`, the inhibition of growth at 6.25 µg/mL in test [1] was found to be 0%.

On to `O=C(CSc1nnc(-c2cccc(NC(=S)NCCO)c2)o1)c1ccc(F)cc1`, for which, in test [1], the inhibition of growth at 6.25 µg/mL was 0%.

Consider `CN(C)C(=S)Nc1cccc(-c2nnc(SCC(=O)c3ccc4ccccc4c3)o2)c1`, for which the inhibition of growth at 6.25 µg/mL in test [1] came to 0%.

As to `O=C(CSc1nnc(-c2cccc(NC(=S)NCCO)c2)o1)c1ccc2ccccc2c1`, the inhibition of growth at 6.25 µg/mL in test [1] is 0%.

`O=C(CSc1nnc(-c2cccc(NC(=S)NCCO)c2)o1)c1ccc(Cl)cc1Cl`: in test [1], the inhibition of growth at 6.25 µg/mL is 0%.

As to `NC(=S)Nc1cccc(-c2nnc(SCC(=O)c3ccc(Cl)cc3Cl)o2)c1`, the inhibition of growth at 6.25 µg/mL in test [1] is 0%.

For the compound `NC(=S)Nc1cccc(-c2nnc(SCC(=O)c3ccc(Cl)cc3)o2)c1`, the inhibition of growth at 6.25 µg/mL in test [1] was found to be 0%.

Consider `NC(=S)Nc1cccc(-c2nnc(SCC(=O)c3ccccc3)o2)c1`, for which, in test [1], the inhibition of growth at 6.25 µg/mL came out at 0%.

For `NC(=S)Nc1cccc(-c2nnc(SCC(=O)c3ccc(Br)cc3)o2)c1`, the inhibition of growth at 6.25 µg/mL in test [1] came to 6%.

`CN(C)C(=S)Nc1cccc(-c2nnc(SCC(=O)c3ccccc3)o2)c1`: the inhibition of growth at 6.25 µg/mL in test [1] is 9%.

For the compound `NC(=S)Nc1cccc(-c2nnc(SCCc3ccccc3)o2)c1`, in test [1], the inhibition of growth at 6.25 µg/mL was determined as 16%.

`O=C(CSc1nnc(-c2cccc(NC(=S)NCCO)c2)o1)c1ccc(Br)cc1`: the inhibition of growth at 6.25 µg/mL in test [1] stood at 17%.

Regarding `CN(C)C(=S)Nc1cccc(-c2nnc(SCC(=O)c3ccc(Cl)cc3)o2)c1`, the inhibition of growth at 6.25 µg/mL in test [1] stood at 18%.

With `NC(=S)Nc1cccc(-c2nnc(SCC(=O)c3ccc(F)cc3)o2)c1`, the inhibition of growth at 6.25 µg/mL in test [1] worked out at 19%.

As to `O=C(CSc1nnc(-c2cccc(NC(=S)NCCO)c2)o1)c1ccccc1`, the inhibition of growth at 6.25 µg/mL in test [1] is 12%.

As to `Cc1ccc(C(=O)CSc2nnc(-c3cccc(NC(=S)N(C)C)c3)o2)cc1`, the inhibition of growth at 6.25 µg/mL in test [1] was 10%.

With `NC(=S)Nc1cccc(-c2nnc(SCC(=O)c3ccc4ccccc4c3)o2)c1`, the inhibition of growth at 6.25 µg/mL in test [1] came to 16%.

`OCCNC(=S)Nc1cccc(-c2nnc(SCCc3ccccc3)o2)c1`: the inhibition of growth at 6.25 µg/mL in test [1] came to 13%.

For `CSc1nnc(-c2cccc(NC(N)=S)c2)o1`, the inhibition of growth at 6.25 µg/mL in test [1] amounted to 25%.

`CSc1nnc(-c2cccc(NC(=S)NCCO)c2)o1`: in test [1], the inhibition of growth at 6.25 µg/mL was 8%.

As for `CSc1nnc(-c2cccc(NC(=S)Nn3cnnc3)c2)o1`, the inhibition of growth at 6.25 µg/mL in test [1] came out at 58%.

On to `CSc1nnc(-c2cccc(NC(=S)Nc3ccc(C)cc3)c2)o1`, for which the inhibition of growth at 6.25 µg/mL in test [1] stood at 21%.

On to `CSc1nnc(-c2cccc(NC(=S)N3CCOCC3)c2)o1`, for which, in test [1], the inhibition of growth at 6.25 µg/mL was found to be 0%.

With `CSc1nnc(-c2cccc(NC(=S)NN(C)C)c2)o1`, in test [1], the inhibition of growth at 6.25 µg/mL came to 8%.

For `CN(C)C(=S)Nc1cccc(-c2nnc(SCC(=O)c3ccc(Cl)cc3Cl)o2)c1`, the inhibition of growth at 6.25 µg/mL in test [1] is 1%.

In the case of `NC(=S)Nc1cccc(-c2nnc(SCc3ccccc3)o2)c1`, the inhibition of growth at 6.25 µg/mL in test [1] was determined as 0%.

In the case of `CNC(=S)Nc1cccc(-c2nnc(SCC(=O)c3ccc4ccccc4c3)o2)c1`, the inhibition of growth at 6.25 µg/mL in test [1] amounted to 0%.

For the compound `NNC(=S)Nc1ccc(-c2nnc(S)o2)cc1` [STEMAZOLE], in test [1], the inhibition of growth at 6.25 µg/mL was determined as 0%.

The values are drawn from ChEMBL document CHEMBL1914302, “The structure-antituberculosis activity relationships study in a series of 5-aryl-2-thio-1,3,4-oxadiazole derivatives” (2011).
